# Results taken from ChEMBL document CHEMBL1136036, “Targeting thrombin and factor VIIa: design, synthesis, and inhibitory activity of functionally relevant indolizidinones” (Bioorg Med Chem Lett, 2002).
# How the values were obtained:
# Coagulation factor XI [1] = molecular target: T1, Coagulation factor XI (Homo sapiens, UniProt P03951); assay: Compound was tested for inhibitory activity against Coagulation factor XIa
# Coagulation factor VII = molecular target: T2, Coagulation factor VII (Homo sapiens, UniProt P08709); assay: Compound was tested for inhibitory activity against Coagulation factor VIIa
# T2 sequence (P08709 whole entry): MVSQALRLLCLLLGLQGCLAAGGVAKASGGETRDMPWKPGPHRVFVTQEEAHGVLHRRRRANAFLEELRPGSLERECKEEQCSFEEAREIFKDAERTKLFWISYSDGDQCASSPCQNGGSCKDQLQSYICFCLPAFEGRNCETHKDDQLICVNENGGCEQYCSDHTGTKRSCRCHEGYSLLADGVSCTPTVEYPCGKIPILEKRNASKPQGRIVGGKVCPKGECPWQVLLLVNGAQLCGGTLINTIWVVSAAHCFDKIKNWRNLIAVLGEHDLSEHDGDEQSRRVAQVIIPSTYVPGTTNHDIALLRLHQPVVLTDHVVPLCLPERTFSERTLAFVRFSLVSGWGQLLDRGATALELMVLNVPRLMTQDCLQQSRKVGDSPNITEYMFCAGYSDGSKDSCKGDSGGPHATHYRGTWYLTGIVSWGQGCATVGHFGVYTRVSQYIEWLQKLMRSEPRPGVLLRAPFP
# Plasminogen = Plasminogen (Homo sapiens, UniProt P00747); assay: Compound was tested for inhibitory activity against Plasmin
# Prothrombin = Prothrombin (Homo sapiens, UniProt P00734); assay: Compound was tested for inhibitory activity against Thrombin
# Coagulation factor XI [2] = molecular target: T1, Coagulation factor XI; assay: Compound was tested for inhibitory activity against Coagulation factor XIa at 8 uM
# T1 sequence (P03951 19-387 limits assumed): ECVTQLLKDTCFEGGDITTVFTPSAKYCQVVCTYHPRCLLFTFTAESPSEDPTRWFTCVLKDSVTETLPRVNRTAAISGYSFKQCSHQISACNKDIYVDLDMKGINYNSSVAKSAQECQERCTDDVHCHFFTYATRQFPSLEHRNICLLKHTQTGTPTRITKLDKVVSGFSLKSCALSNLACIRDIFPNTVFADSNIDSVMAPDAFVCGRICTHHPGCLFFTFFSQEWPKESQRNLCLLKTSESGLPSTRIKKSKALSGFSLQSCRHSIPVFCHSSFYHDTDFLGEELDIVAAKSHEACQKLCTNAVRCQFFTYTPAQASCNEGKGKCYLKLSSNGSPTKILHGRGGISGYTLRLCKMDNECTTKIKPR
# T1 sequence (P03951 388-625 limits assumed): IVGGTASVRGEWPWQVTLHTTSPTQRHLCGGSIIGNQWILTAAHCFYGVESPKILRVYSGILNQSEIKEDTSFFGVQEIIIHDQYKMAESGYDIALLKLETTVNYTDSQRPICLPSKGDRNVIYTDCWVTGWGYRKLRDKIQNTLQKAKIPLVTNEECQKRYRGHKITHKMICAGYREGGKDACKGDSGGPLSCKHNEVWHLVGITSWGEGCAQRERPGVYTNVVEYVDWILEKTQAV
# Sequence of Plasminogen (P00747 97-580 limits assumed): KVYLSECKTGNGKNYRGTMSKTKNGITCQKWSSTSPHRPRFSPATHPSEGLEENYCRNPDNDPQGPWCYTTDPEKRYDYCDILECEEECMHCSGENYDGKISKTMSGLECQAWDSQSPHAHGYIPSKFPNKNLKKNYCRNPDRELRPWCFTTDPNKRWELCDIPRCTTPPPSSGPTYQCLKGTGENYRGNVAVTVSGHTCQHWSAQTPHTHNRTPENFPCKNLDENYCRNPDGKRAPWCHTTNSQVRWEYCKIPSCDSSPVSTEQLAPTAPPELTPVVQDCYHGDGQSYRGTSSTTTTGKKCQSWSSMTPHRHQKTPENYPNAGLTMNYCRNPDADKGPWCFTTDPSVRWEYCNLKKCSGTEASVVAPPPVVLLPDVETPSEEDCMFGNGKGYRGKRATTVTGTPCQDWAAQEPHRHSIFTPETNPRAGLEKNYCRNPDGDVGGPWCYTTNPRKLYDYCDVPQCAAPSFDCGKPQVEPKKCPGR
# Sequence of Plasminogen (P00747 581-810 limits assumed): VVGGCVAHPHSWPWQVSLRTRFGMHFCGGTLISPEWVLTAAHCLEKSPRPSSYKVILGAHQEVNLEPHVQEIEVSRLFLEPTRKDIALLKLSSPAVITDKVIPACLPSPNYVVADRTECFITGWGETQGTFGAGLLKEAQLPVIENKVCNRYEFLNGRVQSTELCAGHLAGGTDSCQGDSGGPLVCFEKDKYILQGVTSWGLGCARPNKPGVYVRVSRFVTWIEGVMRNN
Compound,IC50 (Coagulation factor XI [1]) [µM],IC50 (Coagulation factor VII) [µM],IC50 (Plasminogen) [µM],IC50 (Prothrombin) [µM],inhibition (Coagulation factor XI [2]) [%]
CC[C@@H]1CC(C(=O)NCc2ccc(C(=N)N)cc2)N2C(=O)[C@](N)(Cc3ccccc3)C[C@H](OC)[C@H]12 (stereo partly specified),> 133,0.42,11,,
CC[C@@H]1CC(C(=O)NCc2ccc(C(=N)N)cc2)N2C(=O)[C@@](N)(CC3=CCCCC3)C[C@H](OC)[C@H]12 (stereo partly specified),,109,,,
CC[C@@H]1CC(C(=O)NCc2ccc(C(=N)N)cc2)N2C(=O)[C@](N)(CC3=CCCCC3)C[C@H](OC)[C@H]12 (stereo partly specified),> 133,4.6,141,0.17,
C=C(C)C[C@]1(N)C[C@H](OC)[C@@H]2[C@H](CC)CC(C(=O)NCc3ccc(C(=N)N)cc3)N2C1=O (stereo partly specified),> 133,1.6,37,0.38,
C[C@]1(O)CC[C@@H]2CCC(C(=O)NCc3ccc(C(=N)N)cc3)N2C1=O (stereo partly specified),,> 10,,0.27,20
N=C(N)c1ccc(CNC(=O)C2CC[C@H]3CC[C@@](O)(Cc4ccccc4)C(=O)N23)cc1 (stereo partly specified),,1.1,,,78
CO[C@H]1C[C@@](O)(Cc2ccccc2)C(=O)N2C(C(=O)NCc3ccc(C(=N)N)cc3)CC[C@@H]12 (stereo partly specified),35,0.52,71,0.11,
